35 molecules from ChEMBL document CHEMBL1127973, “A comparative molecular field analysis derived model of the binding of taxol analogues to microtubules” (Bioorg Med Chem Lett, 1994) can be followed below.

SMILES strings stand for the structures.

This experiment has as its target Tubulin (Homo sapiens) (UniProt P68371+Q9H4B7+P0DPH7+P68366+Q13509+Q71U36+P04350+Q3ZCM7+P07437+P68363+Q9BQE3+Q6PEY2+Q13885+Q9BVA1+Q9BUF5). Kind of experiment: Binding affinity to microtubules, activity expressed as ID50 of compound/ID50 of paclitaxel. In kind it is protein-complex assay.
In the case of `CC(=O)O[C@H]1C(=O)[C@@]2(C)[C@H]([C@H](OC(=O)c3ccccc3)[C@]3(O)C[C@H](OC(=O)[C@H](O)[C@@H](NC(=O)OC(C)(C)C)c4ccco4)C(C)=C1C3(C)C)[C@]1(OC(C)=O)CO[C@@H]1C[C@@H]2O`, the ID50 ratio came out at 1.7.

`CC(=O)O[C@@]12CO[C@@H]1C[C@H](O)[C@@]1(C)C(=O)[C@H](O)C3=C(C)[C@@H](OC(=O)[C@H](O)[C@@H](NC(=O)OC(C)(C)C)c4ccccc4)C[C@@](O)([C@@H](OC(=O)c4ccccc4)[C@H]21)C3(C)C` (stereo in doubt; 40): the ID50 ratio worked out at 0.5. Then `CC(=O)O[C@H]1C(=O)[C@]2(C)[C@@H](OC(=O)c3c(F)c(F)c(N=[N+]=[N-])c(F)c3F)C[C@H]3OC[C@@]3(OC(C)=O)[C@H]2[C@H](OC(=O)c2ccccc2)[C@]2(O)C[C@H](OC(=O)[C@H](O)[C@@H](NC(=O)c3ccccc3)c3ccccc3)C(C)=C1C2(C)C`, with over 22.4; and `CCCCCC(=O)N[C@@H](c1ccccc1)[C@@H](O)C(=O)O[C@H]1C[C@@]2(O)[C@@H](OC(=O)c3ccccc3)[C@@H]3[C@]4(OC(C)=O)CO[C@@H]4C[C@H](O)[C@@]3(C)C(=O)[C@H](OC(C)=O)C(=C1C)C2(C)C`, with 0.4.

Take `CC(=O)O[C@H]1C(=O)[C@@]2(C)[C@H]([C@H](OC(=O)c3ccccc3)[C@]3(O)C[C@H](OC(=O)[C@H](O)[C@@H](NC(=O)c4ccccc4)c4ccco4)C(C)=C1C3(C)C)[C@]1(OC(C)=O)CO[C@@H]1C[C@@H]2O`: the ID50 ratio turned out to be 0.9. Then `CC(=O)O[C@H]1C(=O)[C@@]2(C)[C@H]([C@H](OC(=O)c3ccccc3)[C@]3(O)C[C@H](OC(=O)[C@@H](C)O)C(C)=C1C3(C)C)[C@]1(OC(C)=O)CO[C@@H]1C[C@@H]2O`, with 5.6.

`CC(=O)O[C@H]1C(=O)[C@@]2(C)[C@H]([C@H](OC(=O)c3ccccc3)[C@]3(O)C[C@H](OC(=O)[C@H](O)[C@@H](NC(=O)c4c(F)c(F)c(N=[N+]=[N-])c(F)c4F)c4ccccc4)C(C)=C1C3(C)C)[C@]1(OC(C)=O)CO[C@@H]1C[C@@H]2O`: the ID50 ratio is 4.6.

As to `CC(=O)O[C@H]1C(=O)[C@@]2(C)[C@H]([C@H](OC(=O)c3ccccc3)[C@]3(O)C[C@H](OC(=O)[C@H](O)[C@@H](NC(=O)c4ccccc4)c4cccnc4)C(C)=C1C3(C)C)[C@]1(OC(C)=O)CO[C@@H]1C[C@@H]2O`, the ID50 ratio was determined as 0.5. Then `CC(=O)O[C@H]1C(=O)[C@@]2(C)[C@H]([C@H](OC(=O)c3ccccc3)[C@]3(O)C[C@H](OC(=O)[C@H](O)[C@@H](NC(=O)c4ccc([N+](=O)[O-])cc4)c4ccccc4)C(C)=C1C3(C)C)[C@]1(OC(C)=O)CO[C@@H]1C[C@@H]2O`, with 2. The value for `CC(=O)O[C@@]12CO[C@@H]1C[C@H](O)[C@@]1(C)C(=O)[C@H](O)C3=C(C)[C@@H](OC(=O)C[C@@H](O)[C@@H](NC(=O)c4ccccc4)c4ccccc4)C[C@@](O)([C@@H](OC(=O)c4ccccc4)[C@H]21)C3(C)C` was over 27; that for `CC(=O)O[C@H]1C(=O)[C@@]2(C)[C@H]([C@H](OC(=O)c3ccccc3)[C@]3(O)C[C@H](OC(=O)[C@H](O)[C@@H](NC(=O)c4ccccc4)c4ccncc4)C(C)=C1C3(C)C)[C@]1(OC(C)=O)CO[C@@H]1C[C@@H]2O` was 0.4. Then `CC(=O)O[C@H]1C(=O)[C@@]2(C)[C@H]([C@H](OC(=O)c3ccccc3)[C@]3(O)C[C@H](OC(=O)[C@@H](O)[C@H](NC(=O)c4ccccc4)c4ccccc4)C(C)=C1C3(C)C)[C@]1(OC(C)=O)CO[C@@H]1C[C@@H]2O`, with 4.5; and `CC(=O)O[C@H]1C(=O)[C@@]2(C)[C@H]([C@H](OC(=O)c3ccccc3)[C@]3(O)C[C@H](OC(=O)[C@H](O)[C@@H](NC(=O)C(C)(C)C)c4ccccc4)C(C)=C1C3(C)C)[C@]1(OC(C)=O)CO[C@@H]1C[C@@H]2O`, with 2.6. Turning to `CC(=O)O[C@H]1C(=O)[C@@]2(C)[C@H]([C@H](OC(=O)c3ccccc3)[C@]3(O)C[C@H](OC(=O)C[C@@H](NC(=O)OC(C)(C)C)c4ccccc4)C(C)=C1C3(C)C)[C@]1(OC(C)=O)CO[C@@H]1C[C@@H]2O`, the ID50 ratio came out at 4.1.

On to `CC(=O)O[C@H]1C(=O)[C@@]2(C)[C@H]([C@H](OC(=O)c3ccccc3)[C@]3(O)C[C@H](OC(=O)[C@@H](O)Cc4ccccc4)C(C)=C1C3(C)C)[C@]1(OC(C)=O)CO[C@@H]1C[C@@H]2O`, for which the ID50 ratio was determined as 15.7. Turning to `CC(=O)O[C@@]12CO[C@@H]1C[C@H](O)[C@@]1(C)C(=O)CC3=C(C)[C@@H](OC(=O)[C@H](O)[C@@H](NC(=O)c4ccccc4)c4ccccc4)C[C@@](O)([C@@H](OC(=O)c4ccccc4)[C@H]21)C3(C)C` (stereo in doubt; 17), the ID50 ratio was found to be 143. Then `CC(=O)O[C@H]1C(=O)[C@@]2(C)[C@H]([C@H](OC(=O)c3ccccc3)[C@]3(O)C[C@H](OC(=O)C[C@H](NC(=O)c4ccccc4)c4ccccc4)C(C)=C1C3(C)C)[C@]1(OC(C)=O)CO[C@@H]1C[C@@H]2O`, with 21.2; and `CC(=O)O[C@H]1C(=O)[C@]2(C)[C@@H](OC(C)=O)C[C@H]3OC[C@@]3(OC(C)=O)[C@H]2[C@H](OC(=O)c2ccccc2)[C@]2(O)C[C@H](OC(=O)[C@H](O)[C@@H](NC(=O)c3ccccc3)c3ccccc3)C(C)=C1C2(C)C`, with 2; and `CC(=O)O[C@H]1C(=O)[C@@]2(C)[C@H]([C@H](OC(=O)c3ccccc3)[C@]3(O)C[C@H](OC(=O)[C@H](O)[C@@H](NC(=O)c4ccccc4C)c4ccccc4)C(C)=C1C3(C)C)[C@]1(OC(C)=O)CO[C@@H]1C[C@@H]2O`, with 1.9. Then `CC(=O)O[C@H]1C(=O)[C@@]2(C)[C@H]([C@H](OC(=O)c3ccccc3)[C@]3(O)C[C@H](OC(=O)[C@H](C)O)C(C)=C1C3(C)C)[C@]1(OC(C)=O)CO[C@@H]1C[C@@H]2O`, with 6.4; and `CC(=O)O[C@@]12CO[C@@H]1C[C@H](O)[C@@]1(C)C(=O)CC3=C(C)[C@@H](OC(=O)[C@H](O)[C@@H](NC(=O)c4ccccc4)c4ccccc4)C[C@@](O)([C@@H](OC(=O)c4ccccc4)[C@H]21)C3(C)C` (stereo in doubt; 19), with 106. The value for `CC(=O)O[C@H]1C(=O)[C@@]2(C)[C@H]([C@H](OC(=O)c3ccccc3)[C@]3(O)C[C@H](OC(=O)[C@H](O)[C@@H](NC(=O)c4ccccc4)c4ccccn4)C(C)=C1C3(C)C)[C@]1(OC(C)=O)CO[C@@H]1C[C@@H]2O` was 0.7; that for `CC(=O)O[C@H]1C(=O)[C@]2(C)[C@@H](OC(=O)c3ccc(N=[N+]=[N-])cc3)C[C@H]3OC[C@@]3(OC(C)=O)[C@H]2[C@H](OC(=O)c2ccccc2)[C@]2(O)C[C@H](OC(=O)[C@H](O)[C@@H](NC(=O)c3ccccc3)c3ccccc3)C(C)=C1C2(C)C` was 21.4. On to `CC(=O)O[C@H]1C(=O)[C@@]2(C)[C@H]([C@H](OC(=O)c3ccccc3)[C@]3(O)C[C@H](OC(=O)[C@H](O)[C@@H](NC(=O)c4ccc(N=[N+]=[N-])cc4)c4ccccc4)C(C)=C1C3(C)C)[C@]1(OC(C)=O)CO[C@@H]1C[C@@H]2O`, for which the ID50 ratio was 2. Then `C/C=C(\C)C(=O)N[C@@H](c1ccccc1)[C@@H](O)C(=O)O[C@H]1C[C@@]2(O)[C@@H](OC(=O)c3ccccc3)[C@@H]3[C@]4(OC(C)=O)CO[C@@H]4C[C@H](OC(=O)[C@H](O)[C@@H](O)[C@H](O)CO)[C@@]3(C)C(=O)[C@H](OC(C)=O)C(=C1C)C2(C)C`, with 0.5; and `CC(=O)O[C@H]1C(=O)[C@@]2(C)[C@H]([C@H](OC(=O)c3ccccc3)[C@]3(O)C[C@H](OC(=O)[C@H](O)[C@@H](NC(=O)c4ccc(F)cc4)c4ccccc4)C(C)=C1C3(C)C)[C@]1(OC(C)=O)CO[C@@H]1C[C@@H]2O`, with 1.2; and `CC(=O)O[C@H]1C(=O)[C@@]2(C)[C@H]([C@H](OC(=O)c3ccccc3)[C@]3(O)C[C@H](OC(=O)[C@H](O)[C@@H](NC(=O)c4ccc(Cl)c(Cl)c4)c4ccccc4)C(C)=C1C3(C)C)[C@]1(OC(C)=O)CO[C@@H]1C[C@@H]2O`, with 2.1. In the case of `CC(=O)O[C@H]1C(=O)[C@@]2(C)[C@H]([C@H](OC(=O)c3ccccc3)[C@]3(O)C[C@H](OC(=O)[C@H](O)[C@@H](NC(=O)c4ccccc4)c4ccc(Cl)c(Cl)c4)C(C)=C1C3(C)C)[C@]1(OC(C)=O)CO[C@@H]1C[C@@H]2O`, the ID50 ratio came to 7.1. The value for `CC(=O)O[C@H]1C(=O)[C@@]2(C)[C@H]([C@H](OC(=O)c3ccccc3)[C@]3(O)C[C@H](OC(=O)[C@H](O)[C@@H](NC(=O)/C(C)=N/O)c4ccccc4)C(C)=C1C3(C)C)[C@]1(OC(C)=O)CO[C@@H]1C[C@@H]2O` was 3.5. In the case of `CC(=O)O[C@H]1C(=O)[C@@]2(C)[C@H]([C@H](OC(=O)c3ccccc3)[C@]3(O)C[C@H](OC(=O)[C@H](O)[C@@H](NC(=O)CC(C)C)c4ccccc4)C(C)=C1C3(C)C)[C@]1(OC(C)=O)CO[C@@H]1C[C@@H]2O`, the ID50 ratio came to 1.2. The value for `CC(=O)O[C@H]1C(=O)[C@@]2(C)[C@H]([C@H](OC(=O)c3ccccc3)[C@]3(O)C[C@H](OC(=O)[C@H](O)[C@@H](NC(=O)c4cccc(N(C)C)c4)c4ccccc4)C(C)=C1C3(C)C)[C@]1(OC(C)=O)CO[C@@H]1C[C@@H]2O` was 1.4; that for `CC(=O)O[C@@]12CO[C@@H]1C[C@H](O)[C@@]1(C)C(=O)[C@H](O)C3=C(C)[C@@H](OC(=O)C[C@@H](O)[C@@H](NC(=O)OC(C)(C)C)c4ccccc4)C[C@@](O)([C@@H](OC(=O)c4ccccc4)[C@H]21)C3(C)C` was over 27. Then `CC(=O)O[C@@]12CO[C@@H]1C[C@H](OC(=O)CCCC(=O)O)[C@@]1(C)C(=O)[C@H](OC(=O)CCCC(=O)O)C3=C(C)[C@@H](OC(=O)[C@H](O)[C@@H](NC(=O)OC(C)(C)C)c4ccccc4)C[C@@](O)([C@@H](OC(=O)c4ccccc4)[C@H]21)C3(C)C`, with 2; and `CC(=O)O[C@H]1C(=O)[C@@]2(C)[C@H]([C@H](OC(=O)c3ccccc3)[C@]3(O)C[C@H](OC(=O)[C@H](O)[C@@H](NC(=O)c4ccccc4)c4ccoc4)C(C)=C1C3(C)C)[C@]1(OC(C)=O)CO[C@@H]1C[C@@H]2O`, with 0.9; and `CC(=O)O[C@@]12CO[C@@H]1C[C@H](O)[C@@]1(C)C(=O)[C@H](O)C3=C(C)[C@@H](OC(=O)C[C@H](NC(=O)OC(C)(C)C)c4ccccc4)C[C@@](O)([C@@H](OC(=O)c4ccccc4)[C@H]21)C3(C)C`, with 2.3.
